Assay results as given in patent US8394801B2, “Quinoxaline derivatives and their use for treating benign and malignant tumour disorders” (Aeterna Zentaris GmbH, priority 2009, dated 2013).

How the values were obtained:
HCT116 = assay: Proliferation assay (Alamar Blue / XTT), HCT116; assay type: cell-based; conditions: Homo sapiens; cell line HCT-116 (colon)
A549 = assay: Proliferation assay (Alamar Blue / XTT), A549; assay type: cell-based; conditions: Homo sapiens; cell line A549 (lung)
MDA MB468 = assay: Proliferation assay (Alamar Blue / XTT), MDA MB468; assay type: cell-based; conditions: Homo sapiens, MDA-MB-468; cell line MDA-MB468 (breast)
NCI-H460 = assay: Proliferation assay (Alamar Blue / XTT), NCI-H460; assay type: cell-based; conditions: Homo sapiens; cell line NCI-H460 (lung)
SKOV-3 = assay: Proliferation assay (Alamar Blue / XTT), SKOV-3; assay type: cell-based; conditions: Homo sapiens, SK-OV-3; cell line SKOV-3 (ovaries)
PC-3 = assay: Proliferation assay (Alamar Blue / XTT), PC-3; assay type: cell-based; conditions: Homo sapiens, cell line PC3 (prostate)
RKOP27 = assay: Proliferation assay (Alamar Blue / XTT), RKOP27; assay type: cell-based; conditions: Homo sapiens; cell line RKOp27 (colon)
U87MG = assay: Proliferation assay (Alamar Blue / XTT), U87MG; assay type: cell-based; conditions: Homo sapiens, U-87 MG; cell line U87MG (glioma)

SMILES	EC50 (HCT116)	EC50 (A549)	EC50 (NCI-H460)	EC50 (SKOV-3)	EC50 (PC-3)	EC50 (U87MG)	melting point	EC50 (MDA MB468)	EC50 (RKOP27)
Cc1cc(-c2ccc3ncc(NC(=O)Nc4cccs4)nc3c2)cc(C)c1O [Compound 15, 1-[7-(4-Hydroxy-3,5-dimethylphenyl)quinoxalin-2-yl]-3-thiophen-2-ylurea]	475 nM	836 nM	714 nM	1810 nM	309 nM	1340 nM		835 nM	
Oc1c(Cl)cc(-c2ccc3ncc(NC(=S)NC4CCC4)nc3c2)cc1Cl [Compound 80, 1-Cyclobutyl-3-[7-(3,5-dichloro-4-hydroxy-phenyl)-quinoxalin-2-yl]-thiourea]	1710 nM	2040 nM			1190 nM	2000 nM	277 to 280 °C	672 nM	
Oc1c(Cl)cc(-c2ccc3ncc(NC(=S)NC4CC4)nc3c2)cc1Cl [Compound 83, 1-Cyclopropyl-3-[7-(3,5-dichloro-4-hydroxy-phenyl)-quinoxalin-2-yl]-thiourea]	2090 nM	2290 nM			955 nM	1970 nM	260 to 262 °C	1050 nM	
CCCCNC(=S)Nc1cnc2ccc(-c3cc(Cl)c(O)c(Cl)c3)cc2n1 [Compound 87, 1-Butyl-3-[7-(3,5-dichloro-4-hydroxy-phenyl)-quinoxalin-2-yl]thiourea]	1090 nM	1530 nM			790 nM	2490 nM	226 to 227 °C	464 nM	
CCCCCNC(=S)Nc1cnc2ccc(-c3cc(Cl)c(O)c(Cl)c3)cc2n1 [Compound 90, 1-[7-(3,5-Dichloro-4-hydroxy-phenyl)-quinoxalin-2-yl]-3-pentyl-thiourea]	1010 nM	1090 nM			556 nM	1230 nM	237 to 238 °C	318 nM	
Oc1c(Cl)cc(-c2ccc3ncc(NC(=S)NCc4ccccc4)nc3c2)cc1Cl [Compound 94, 1-Benzyl-3-[7-(3,5-dichloro-4-hydroxy-phenyl)-quinoxalin-2-yl]-thiourea]	586 nM	891 nM			821 nM	2080 nM	275 to 277 °C	169 nM	
Oc1c(Cl)cc(-c2ccc3ncc(NC(=S)NCCCc4ccccc4)nc3c2)cc1Cl [Compound 96, 1-[7-(3,5-Dichloro-4-hydroxy-phenyl)-quinoxalin-2-yl]-3-(3-phenyl-propyl)-thiourea]	1540 nM	1820 nM			1650 nM	2350 nM	248 to 250 °C	1040 nM	
Oc1c(Cl)cc(-c2ccc3ncc(NC(=S)NCCc4ccccc4)nc3c2)cc1Cl [Compound 97, 1-[7-(3,5-Dichloro-4-hydroxy-phenyl)-quinoxalin-2-yl]-3-phenethyl-thiourea]	700 nM	1510 nM			538 nM	1820 nM	282 to 285 °C	568 nM	

The next molecules have a lower EC50 (HCT116) than those just listed; values first:

EC50 (HCT116)	EC50 (A549)	EC50 (NCI-H460)	EC50 (SKOV-3)	EC50 (PC-3)	EC50 (U87MG)	melting point	SMILES	EC50 (MDA MB468)	EC50 (RKOP27)
229 nM	289 nM	238 nM	248 nM	112 nM	181 nM		Cc1cc(-c2ccc3ncc(NC(=O)NC(C)(C)C)nc3c2)cc(C)c1O [Compound 9, 1-tert-Butyl-3-[7-(4-hydroxy-3,5-dimethylphenyl)quinoxalin-2-yl]urea]	263 nM	176 nM
42 nM	76 nM	85 nM	67 nM	51 nM	77 nM		Cc1cc(-c2ccc3ncc(NC(=O)NC4CCCCC4)nc3c2)cc(C)c1O [Compound 12, 1-Cyclohexyl-3-[7-(4-hydroxy-3,5-dimethylphenyl)quinoxalin-2-yl]urea]	125 nM	
21 nM	46 nM	38 nM	32 nM	16 nM	8 nM	276 to 280 °C	CCCCNC(=O)Nc1cnc2ccc(-c3cc(C)c(O)c(C)c3)cc2n1 [Compound 18, 1-Butyl-3-[7-(4-hydroxy-3,5-dimethylphenyl)quinoxalin-2-yl]urea]	30 nM	
30 nM	23 nM	60 nM	45 nM	15 nM	13 nM	269 to 271 °C	Cc1cc(-c2ccc3ncc(NC(=S)NC(C)C)nc3c2)cc(C)c1O [Compound 31, 1-[7-(4-Hydroxy-3,5-dimethylphenyl)quinoxalin-2-yl]-3-isopropylthiourea]	25 nM	
16 nM	9 nM	30 nM	27 nM	9 nM	3 nM	278 to 280 °C	CCCCNC(=S)Nc1cnc2ccc(-c3cc(C)c(O)c(C)c3)cc2n1 [Compound 32, 1-Butyl-3-[7-(4-hydroxy-3,5-dimethylphenyl)quinoxalin-2-yl]thiourea]	20 nM	
36 nM	16 nM	52 nM	50 nM	12 nM	224 nM	285 to 286 °C	Cc1cc(-c2ccc3ncc(NC(=S)NC4CCC4)nc3c2)cc(C)c1O [Compound 34, 1-Cyclobutyl-3-[7-(4-hydroxy-3,5-dimethylphenyl)quinoxalin-2-yl]-thiourea]	30 nM	58 nM
43 nM	34 nM	64 nM	42 nM	9 nM	111 nM	276 to 277 °C	CCCNC(=O)Nc1cnc2ccc(-c3cc(C)c(O)c(C)c3)cc2n1 [Compound 36, 1-[7-(4-Hydroxy-3,5-dimethylphenyl)quinoxalin-2-yl]-3-propylurea]	43 nM	
91 nM	217 nM	218 nM		76 nM	105 nM		C=CCNC(=O)Nc1cnc2ccc(-c3cc(C)c(O)c(C)c3)cc2n1 [Compound 41, 1-Allyl-3-[7-(4-hydroxy-3,5-dimethylphenyl)quinoxalin-2-yl]urea]	131 nM	
409 nM	1030 nM			334 nM	1800 nM	288 to 289 °C	Oc1c(Cl)cc(-c2ccc3ncc(NC(=S)NC4CCCCCCC4)nc3c2)cc1Cl [Compound 93, 1-Cyclooctyl-3-[7-(3,5-dichloro-4-hydroxy-phenyl)-quinoxalin-2-yl]-thiourea]	193 nM	
